pIC50: −log10 of the molar value. In brackets after ≈: the same amount, converted by molar mass.
system: not listed separately; test: Test for Solubility in Water; type: physicochemical; conditions: room temperature
Description: A sample tube was charged with 0.7 mg of Compound (I), and 30 μl of water were added thereto at room temperature. The mixture was stirred, and the solubility in water was measured. When the compound was not dissolved, 30 μl of water was added thereto successively, and the mixture was stirred. The solubility in water was measured when the compound was dissolved.

**Q.** Which solubility does the source give for `COC(=O)c1c(C)[nH]c2c(OC(=O)NN3CCN(C)CC3)cc3c(c12)C(CBr)CN3C(=O)/C=C/c1cnc(OC)nc1` (stereo not drawn) [Compound 71] here?
**A.** Its solubility is > 10000 µg/mL.

**Q.** For `COC(=O)c1c(C)[nH]c2c(OC(=O)CSCC(=O)O)cc3c(c12)C(CBr)CN3C(=O)/C=C/c1cnc(OC)nc1` (stereo not drawn) [Compound 73], which solubility is on record?
**A.** The solubility was < 100 µg/mL.

**Q.** With `COC(=O)c1c(C)[nH]c2c(OC(=O)c3ccc(CN4CCN(C)CC4)cc3)cc3c(c12)C(CBr)CN3C(=O)/C=C/c1cnc(OC)nc1` (stereo not drawn) [Compound 76] as the compound, how does the solubility read?
**A.** The solubility was > 10000 µg/mL.

**Q.** With `COC(=O)c1c(C)[nH]c2c(OC(=O)N3CCN(C)CC3)cc3c(c12)C(CBr)CN3C(=O)/C=C/c1ccc(N(C)C)cc1` (stereo not drawn) [Compound 79] as the compound, how does the solubility read?
**A.** Its solubility is > 20000 µg/mL.

**Q.** Which solubility does the source give for `COC(=O)c1c(C)[nH]c2c(O)cc3c(c12)C(CCl)CN3C(=O)/C=C/c1ccc(OC)c(N(C)C)c1` (stereo not drawn) [Compound 80] here?
**A.** The solubility was > 15000 µg/mL.

**Q.** Which solubility does the source give for `COC(=O)c1c(C)[nH]c2c(O)cc3c(c12)C(CBr)CN3C(=O)/C=C/c1ccc(OC)c(N(C)C)c1` (stereo not drawn) [Compound 81] here?
**A.** The solubility was 2500 µg/mL (≈ 4.61 mM).

**Q.** With `COC(=O)c1c(C)[nH]c2c(OC(=O)CN3CCC(N4CCCCC4)CC3)cc3c(c12)C(CBr)CN3C(=O)/C=C/c1ccc(OC)c(N(C)C)c1` (stereo not drawn) [Compound 83] as the compound, how does the solubility read?
**A.** The solubility was > 20000 µg/mL.

system: HeLaS3 cells; test: Growth Inhibitory Effect Against HeLaS3 cells; type: cell-based; conditions: Homo sapiens, HeLa S3, 72 h
Description: HeLaS3 cells were suspended in MEM medium containing 10% calf serum and 2 mM glutamine to a concentration of 2.67×10^4 cells/mi. The cell suspension thus prepared was put into wells of a 24-well culture plate in an amount of 0.75 ml per well. After the cells were incubated in a CO2 incubator overnight at 37° C., Compound (I) which had been appropriately diluted with a culture medium was added to each well in an amount of 0.25 ml.
The cells were further incubated in the CO2 incubator for 72 hours, and the culture supernatant was removed. Then, the cells were dispersed in a solution of trypsin and EDTA and recovered. The number of cells was counted using a cell counter. The concentration (IC50) of Compound (I) at which the growth of the cells is inhibited by 50% was calculated by comparing the number of untreated cells with the number of the cells treated with Compound (I) at known concentrations.

**Q.** With `COC(=O)c1c(C)[nH]c2c(OC(=O)NN3CCN(C)CC3)cc3c(c12)C(CBr)CN3C(=O)/C=C/c1cnc(OC)nc1` (stereo not drawn) [Compound 71] as the compound, how does the pIC50 read?
**A.** Its pIC50 is 8.82.

**Q.** With `COC(=O)c1c(C)[nH]c2c(OC(=O)N(C)N)cc3c(c12)C(CBr)CN3C(=O)/C=C/c1cnc(OC)nc1` (stereo not drawn) [Compound 74] as the compound, how does the pIC50 read?
**A.** The pIC50 was 8.62.

**Q.** With `COC(=O)c1c(C)[nH]c2c(OC(=O)N3CCN(C)CC3)cc3c(c12)C(CBr)CN3C(=O)/C=C/c1ccc(N(C)C)cc1` (stereo not drawn) [Compound 79] as the compound, how does the pIC50 read?
**A.** The pIC50 was 7.28.

same assay, conditions: Homo sapiens, HeLa S3, 72 hours, read-out: IC50

**Q.** With `COC(=O)c1c(C)[nH]c2c1C13CC1CN(C(=O)/C=C/c1ccc(OC)nc1)C3=CC2=O` (stereo not drawn) [Compound 1] as the compound, how does the pIC50 read?
**A.** Its pIC50 is 9.38.

**Q.** With `COC(=O)c1c(C)[nH]c2c1C13CC1CN(C(=O)/C=C/c1cnc(OC)nc1)C3=CC2=O` (stereo not drawn) [Compound 6] as the compound, how does the pIC50 read?
**A.** The pIC50 was 9.05.

**Q.** With `COC(=O)c1c(C)[nH]c2c1C13CC1CN(C(=O)/C=C/c1ccc(OC)nn1)C3=CC2=O` (stereo not drawn) [Compound 12] as the compound, how does the pIC50 read?
**A.** The pIC50 was 9.55.

**Q.** With `COC(=O)c1c(C)[nH]c2c1C13CC1CN(C(=O)COc1ccc(OC)cc1)C3=CC2=O` (stereo not drawn) [Compound 18] as the compound, how does the pIC50 read?
**A.** Its pIC50 is 9.72.

**Q.** With `COC(=O)c1c(C)[nH]c2c1C13CC1CN(C(=O)COc1ccc(OC(F)(F)F)cc1)C3=CC2=O` (stereo not drawn) [Compound 23] as the compound, how does the pIC50 read?
**A.** The pIC50 was 8.80.

**Q.** With `COC(=O)c1c(C)[nH]c2c1C13CC1CN(C(=O)/C=C/c1ccc(NC(=O)OC(C)(C)C)cc1)C3=CC2=O` (stereo not drawn) [Compound 26] as the compound, how does the pIC50 read?
**A.** Its pIC50 is 9.25.

**Q.** With `COC(=O)c1c(C)[nH]c2c1C13CC1CN(C(=O)/C=C/c1ccc(N(C)C)cc1)C3=CC2=O` (stereo not drawn) [Compound 27] as the compound, how does the pIC50 read?
**A.** The pIC50 was 8.80.

**Q.** With `COC(=O)c1c(C)[nH]c2c1C13CC1CN(C(=O)/C=C/c1ccc(N)cc1)C3=CC2=O` (stereo not drawn) [Compound 28] as the compound, how does the pIC50 read?
**A.** Its pIC50 is 8.59.

**Q.** With `COC(=O)c1c(C)[nH]c2c1C13CC1CN(C(=O)/C=C/c1ccc(OC)c(OCCCN)c1)C3=CC2=O` (stereo not drawn) [Compound 30] as the compound, how does the pIC50 read?
**A.** The pIC50 was 8.85.

**Q.** With `COC(=O)COc1cc(/C=C/C(=O)N2CC3CC34C2=CC(=O)c2[nH]c(C)c(C(=O)OC)c24)ccc1OC` (stereo not drawn) [Compound 34] as the compound, how does the pIC50 read?
**A.** The pIC50 was 9.07.

**Q.** With `COC(=O)c1c(C)[nH]c2c1C13CC1CN(C(=O)/C=C/c1ccc(OC)c(N)c1)C3=CC2=O` (stereo not drawn) [Compound 37] as the compound, how does the pIC50 read?
**A.** Its pIC50 is 9.28.

**Q.** With `COC(=O)Oc1cc2c(c3c(C(=O)OC)c(C)[nH]c13)C(CBr)CN2C(=O)/C=C/c1ccc(OC)c(N)c1` (stereo not drawn) [Compound 38] as the compound, how does the pIC50 read?
**A.** Its pIC50 is 9.17.

**Q.** With `COC(=O)c1c(C)[nH]c2c1C13CC1CN(C(=O)/C=C/c1ccc(OC)c(N(C)C)c1)C3=CC2=O` (stereo not drawn) [Compound 41] as the compound, how does the pIC50 read?
**A.** Its pIC50 is 9.04.

**Q.** With `COC(=O)c1c(C)[nH]c2c(OC(=O)CSCC(=O)O)cc3c(c12)C(CBr)CN3C(=O)/C=C/c1cnc(OC)nc1` (stereo not drawn) [Compound 73] as the compound, how does the pIC50 read?
**A.** Its pIC50 is 8.92.

**Q.** With `COC(=O)c1c(C)[nH]c2c(OC(=O)c3ccc(CN4CCN(C)CC4)cc3)cc3c(c12)C(CBr)CN3C(=O)/C=C/c1cnc(OC)nc1` (stereo not drawn) [Compound 76] as the compound, how does the pIC50 read?
**A.** The pIC50 was 8.89.

**Q.** With `COC(=O)c1c(C)[nH]c2c(O)cc3c(c12)C(CCl)CN3C(=O)/C=C/c1ccc(OC)c(N(C)C)c1` (stereo not drawn) [Compound 80] as the compound, how does the pIC50 read?
**A.** Its pIC50 is 9.36.

**Q.** With `COC(=O)c1c(C)[nH]c2c(O)cc3c(c12)C(CBr)CN3C(=O)/C=C/c1ccc(OC)c(N(C)C)c1` (stereo not drawn) [Compound 81] as the compound, how does the pIC50 read?
**A.** The pIC50 was 9.30.

**Q.** With `COC(=O)c1c(C)[nH]c2c(OC(=O)CN3CCC(N4CCCCC4)CC3)cc3c(c12)C(CBr)CN3C(=O)/C=C/c1ccc(OC)c(N(C)C)c1` (stereo not drawn) [Compound 83] as the compound, how does the pIC50 read?
**A.** Its pIC50 is 9.23.

system: Sarcoma 180 tumor; test: Therapeutic Effect Against Sarcoma 180 Tumor; type: in vivo, male ddY-strain mice; conditions: Mus musculus, Sarcoma-180, iv, 168 h, read-out: T/C
Description: Five male ddY-strain mice each weighing 18-20 g were used for each group as test animals, and 5×10^5 Sarcoma 180 tumor cells were implanted at the axilla subcutaneously. One day after the implantation, 0.2 ml of a physiological saline containing Compound (I) at the concentration shown in Table 2 was intravenously administered to each mouse. T/C [T: average tumor volume (mm^3) of the group treated with the test compound, C: average tumor volume (mm^3) of the control group (to which […] of a physiological saline was intravenously administered)] was determined seven days after the implantation.

**Q.** Which response vs control in vivo at 2 mg/kg does the source give for `COC(=O)c1c(C)[nH]c2c(OC(=O)NN3CCN(C)CC3)cc3c(c12)C(CBr)CN3C(=O)/C=C/c1cnc(OC)nc1` (stereo not drawn) [Compound 71] here?
**A.** The response vs control in vivo at 2 mg/kg was 30%.

**Q.** With `COC(=O)c1c(C)[nH]c2c(OC(=O)N(C)N)cc3c(c12)C(CBr)CN3C(=O)/C=C/c1cnc(OC)nc1` (stereo not drawn) [Compound 74] as the compound, how does the response vs control in vivo at 1 mg/kg read?
**A.** The response vs control in vivo at 1 mg/kg was 37%.

**Q.** For `COC(=O)c1c(C)[nH]c2c(OC(=O)N3CCN(C)CC3)cc3c(c12)C(CBr)CN3C(=O)/C=C/c1ccc(N(C)C)cc1` (stereo not drawn) [Compound 79], which response vs control in vivo at 8 mg/kg is on record?
**A.** Its response vs control in vivo at 8 mg/kg is 22%.

same assay, conditions: Mus musculus, Sarcoma-180, iv, 168 h; 1.0 mg/kg, single i.v. one day after s.c. implantation; tumor volume ratio seven days after implantation; read-out: T/C

**Q.** For `COC(=O)c1c(C)[nH]c2c(OC(=O)CSCC(=O)O)cc3c(c12)C(CBr)CN3C(=O)/C=C/c1cnc(OC)nc1` (stereo not drawn) [Compound 73], which response vs control in vivo at 1 mg/kg is on record?
**A.** The response vs control in vivo at 1 mg/kg was 36%.

**Q.** With `COC(=O)c1c(C)[nH]c2c(OC(=O)c3ccc(CN4CCN(C)CC4)cc3)cc3c(c12)C(CBr)CN3C(=O)/C=C/c1cnc(OC)nc1` (stereo not drawn) [Compound 76] as the compound, how does the response vs control in vivo at 1 mg/kg read?
**A.** Its response vs control in vivo at 1 mg/kg is 25%.
